# Measurements from patent US20260028354A1, “TETRAHYDRONAPHTHALENE DERIVATIVES AS ESTROGEN RECEPTOR DEGRADERS” (REGENT OF THE UNIVERSITY OF MICHIGAN, priority 2022, published 2026).
# Read-outs that look alike come from different tables or passages of the source.
# Experiments:
# ER = ER (Homo sapiens (Human), UniProt P03372); assay: In-cell western blot analysis of ER for "B" compounds; assay type: cell-based; conditions: 16 hours, read-out: ICW DC50
# Outline: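 In-cell western: fixed cells stained with primary antibodies (2 h, RT), then anti-rabbit-680 and anti-mouse-800 secondaries (1:1000, 1 h, RT), imaged on a LI-COR plate reader. Relative ER level in treated wells expressed against untreated and DMSO-treated wells set as 100%.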
# [1] = Cell growth assay (WST-8) for "B" compounds; assay type: cell-based; conditions: T47D, read-out: Cell growth Inhibition in T47D cell line IC50
# Outline: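 Cells seeded at 1500/well overnight, then exposed to compounds for 4 days. 10% WST-8 added for 2.5 h at 37 °C and absorbance read at 450 nm. Growth given as absorbance relative to vehicle control, from three repeats.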
# ER, sequence (P03372 whole entry): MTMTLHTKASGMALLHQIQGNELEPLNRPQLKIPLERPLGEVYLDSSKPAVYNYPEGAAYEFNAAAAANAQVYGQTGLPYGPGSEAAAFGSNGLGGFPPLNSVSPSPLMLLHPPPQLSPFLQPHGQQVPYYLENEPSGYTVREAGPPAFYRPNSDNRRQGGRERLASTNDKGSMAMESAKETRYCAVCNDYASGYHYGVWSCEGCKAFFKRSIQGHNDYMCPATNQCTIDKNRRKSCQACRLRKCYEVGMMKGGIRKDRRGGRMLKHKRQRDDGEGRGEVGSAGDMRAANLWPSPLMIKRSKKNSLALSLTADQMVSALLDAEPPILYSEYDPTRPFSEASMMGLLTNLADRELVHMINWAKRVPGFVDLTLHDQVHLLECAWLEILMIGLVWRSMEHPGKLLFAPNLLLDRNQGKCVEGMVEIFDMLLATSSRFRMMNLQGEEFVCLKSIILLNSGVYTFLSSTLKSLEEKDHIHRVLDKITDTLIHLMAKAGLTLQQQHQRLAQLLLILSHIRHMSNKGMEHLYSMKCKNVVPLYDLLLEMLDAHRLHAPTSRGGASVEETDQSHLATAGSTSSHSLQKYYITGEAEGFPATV
DC50 (ER),Structure (SMILES),IC50 ([1]; T47D cell line),IC50 [1]
< 10 nM,"O=C1CCC(N2Cc3cc4c(cc3C2=O)OC[C@@H]2CN(CC3CC5(CCN(c6ccc([C@@H]7c8ccc(O)cc8CC[C@@H]7c7ccccc7)cc6)CC5)C3)CCN42)C(=O)N1 (stereo partly drawn) [Compound B211, 3-((S)-3-((7-(4-((1R,2S)-6-hydroxy-2-phenyl-1,2,3,4-tetrahydronaphthalen-1-yl)phenyl)-7-azaspiro[3.5]nonan-2-yl)methyl)-8-oxo-1,2,3,4,4a,5,8,10-octahydro-9H-pyrazino[1′,2′:4,5][1,4]oxazino[2,3-f]isoindol-9-yl)piperidine-2,6-dione]",1 to 10 nM,
< 10 nM,"O=C1CCC(N2Cc3cc4c(cc3C2=O)OC[C@@H]2CN(CC(=O)N3CC(Nc5ccc([C@@H]6c7ccc(O)cc7CC[C@@H]6c6ccccc6)cc5)C3)CCN42)C(=O)N1 (stereo partly drawn) [Compound B207, 3-((S)-3-(2-(3-((4-((1R,2S)-6-hydroxy-2-phenyl-1,2,3,4-tetrahydronaphthalen-1-yl)phenyl)amino)azetidin-1-yl)-2-oxoethyl)-8-oxo-1,2,3,4,4a,5,8,10-octahydro-9H-pyrazino[1′,2′:4,5][1,4]oxazino[2,3-f]isoindol-9-yl)piperidine-2,6-dione]",< 1 nM,
< 10 nM,"O=C1CCC(N2Cc3cc4c(cc3C2=O)OC[C@@H]2CN(C(=O)CN3CCC5(CC3)CCN(c3ccc([C@@H]6c7ccc(O)cc7CC[C@@H]6c6ccccc6)cc3)CC5)CCN42)C(=O)N1 (stereo partly drawn) [Compound B146, 3-((S)-3-(2-(9-(4-((1R,2S)-6-hydroxy-2-phenyl-1,2,3,4-tetrahydronaphthalen-1-yl)phenyl)-3,9-diazaspiro[5.5]undecan-3-yl)acetyl)-8-oxo-1,2,3,4,4a,5,8,10-octahydro-9H-pyrazino[1′,2′:4,5][1,4]oxazino[2,3-f]isoindol-9-yl)piperidine-2,6-dione]",< 1 nM,
10 to 100 nM,"O=C1CCC(N2Cc3cc4c(cc3C2=O)OC[C@@H]2CN(C(=O)CN3CCN(c5ccc([C@@H]6c7ccc(O)cc7CC[C@@H]6c6ccccc6)cc5)CC3)CCN42)C(=O)N1 (stereo partly drawn) [Compound B144, 3-((S)-3-(2-(4-(4-((1R,2S)-6-hydroxy-2-phenyl-1,2,3,4-tetrahydronaphthalen-1-yl)phenyl)piperazin-1-yl)acetyl)-8-oxo-1,2,3,4,4a,5,8,10-octahydro-9H-pyrazino[1′,2′:4,5][1,4]oxazino[2,3-f]isoindol-9-yl)piperidine-2,6-dione]",< 1 nM,
> 100 nM,"O=C1CC[C@H](NC(=O)c2ccc(N3CCN(CC4CCN(c5ccc([C@@H]6c7ccc(O)cc7CC[C@@H]6c6ccccc6)cc5)CC4)CC3)cc2)C(=O)N1 [Compound B315, N-((S)-2,6-dioxopiperidin-3-yl)-4-(4-((1-(4-((1R,2S)-6-hydroxy-2-phenyl-1,2,3,4-tetrahydronaphthalen-1-yl)phenyl)piperidin-4-yl)methyl)piperazin-1-yl)benzamide]",1 to 10 nM,
10 to 100 nM,"O=C1CCC(N2Cc3cc4c(cc3C2=O)OC[C@@H]2CN(CC3CCC5(C3)CN(c3ccc([C@@H]6c7ccc(O)cc7CC[C@@H]6c6ccccc6)cc3)C5)CCN42)C(=O)N1 (stereo partly drawn) [Compound B358, 3-((4aS)-3-((2-(4-((1R,2S)-6-hydroxy-2-phenyl-1,2,3,4-tetrahydronaphthalen-1-yl)phenyl)-2-azaspiro[3.4]octan-6-yl)methyl)-8-oxo-1,2,3,4,4a,5,8,10-octahydro-9H-pyrazino[1′,2′:4,5][1,4]oxazino[2,3-f]isoindol-9-yl)piperidine-2,6-dione]",> 10 nM,
< 10 nM,"O=C1CCC(N2Cc3cc4c(cc3C2=O)OC[C@@H]2CN(C(=O)[C@H]3CC[C@H](CN5CCN(c6ccc([C@@H]7c8ccc(O)cc8CC[C@@H]7c7ccccc7)cc6)CC5)CC3)CCN42)C(=O)N1 (stereo partly drawn) [Compound B141, 3-((S)-3-((1R,4S)-4-((4-(4-((1R,2S)-6-hydroxy-2-phenyl-1,2,3,4-tetrahydronaphthalen-1-yl)phenyl)piperazin-1-yl)methyl)cyclohexane-1-carbonyl)-8-oxo-1,2,3,4,4a,5,8,10-octahydro-9H-pyrazino[1′,2′:4,5][1,4]oxazino[2,3-f]isoindol-9-yl)piperidine-2,6-dione]",< 1 nM,
> 100 nM,"O=C1CCC(N2Cc3c(ccc4c3OC[C@@H]3CN(CC5CCN(c6ccc([C@@H]7c8ccc(O)cc8CC[C@@H]7c7ccccc7)cc6)CC5)CCN43)C2=O)C(=O)N1 (stereo partly drawn) [Compound B306, 3-((S)-7-((1-(4-((1R,2S)-6-hydroxy-2-phenyl-1,2,3,4-tetrahydronaphthalen-1-yl)phenyl)piperidin-4-yl)methyl)-1-oxo-1,3,5,5a,6,7,8,9-octahydro-2H-pyrazino[1′,2′:4,5][1,4]oxazino[2,3-e]isoindol-2-yl)piperidine-2,6-dione]",< 1 nM,
10 to 100 nM,"O=C1CCC(N2Cc3cc4c(cc3C2=O)OC[C@@H]2CN(CC3CCC5(CCN(c6ccc([C@@H]7c8ccc(O)cc8CC[C@@H]7c7ccccc7)cc6)CC5)C3)CCN42)C(=O)N1 (stereo partly drawn) [Compound B363, 3-((4aS)-3-((8-(4-((1R,2S)-6-hydroxy-2-phenyl-1,2,3,4-tetrahydronaphthalen-1-yl)phenyl)-8-azaspiro[4.5]decan-2-yl)methyl)-8-oxo-1,2,3,4,4a,5,8,10-octahydro-9H-pyrazino[1′,2′:4,5][1,4]oxazino[2,3-f]isoindol-9-yl)piperidine-2,6-dione]",> 10 nM,
10 to 100 nM,"O=C1CC[C@H](NC(=O)c2ccc3c(n2)OC[C@H]2CN(CC4CCC5(CCN(c6ccc([C@@H]7c8ccc(O)cc8CC[C@@H]7c7ccccc7)cc6)CC5)C4)CCN32)C(=O)N1 (stereo partly drawn) [Compound B365, (4aR)-N-((S)-2,6-dioxopiperidin-3-yl)-3-((8-(4-((1R,2S)-6-hydroxy-2-phenyl-1,2,3,4-tetrahydronaphthalen-1-yl)phenyl)-8-azaspiro[4.5]decan-2-yl)methyl)-1,2,3,4,4a,5-hexahydropyrazino[1,2-d]pyrido[2,3-b][1,4]oxazine-8-carboxamide]",> 10 nM,
10 to 100 nM,"O=C1CC[C@H](NC(=O)c2ccc3c(n2)OC[C@H]2CN(CC4COC5(CCN(c6ccc([C@@H]7c8ccc(O)cc8CC[C@@H]7c7ccccc7)cc6)CC5)OC4)CCN32)C(=O)N1 [Compound B336, (R)-N-((S)-2,6-dioxopiperidin-3-yl)-3-((9-(4-((1R,2S)-6-hydroxy-2-phenyl-1,2,3,4-tetrahydronaphthalen-1-yl)phenyl)-1,5-dioxa-9-azaspiro[5.5]undecan-3-yl)methyl)-1,2,3,4,4a,5-hexahydropyrazino[1,2-d]pyrido[2,3-b][1,4]oxazine-8-carboxamide]",1 to 10 nM,
10 to 100 nM,"O=C1CC[C@H](NC(=O)c2ccc(N3CCN(CC4CCN(c5ccc([C@@H]6c7ccc(O)cc7CC[C@@H]6c6ccccc6)cc5)CC4)CC3)cn2)C(=O)N1 [Compound B316, N-((S)-2,6-dioxopiperidin-3-yl)-5-(4-((1-(4-((1R,2S)-6-hydroxy-2-phenyl-1,2,3,4-tetrahydronaphthalen-1-yl)phenyl)piperidin-4-yl)methyl)piperazin-1-yl)picolinamide]",1 to 10 nM,
< 10 nM,"O=C1CCC(N2Cc3cc4c(cc3C2=O)OC[C@@H]2CN(C(=O)CN3CC5(CC(Nc6ccc([C@@H]7c8ccc(O)cc8CC[C@@H]7c7ccccc7)cc6)C5)C3)CCN42)C(=O)N1 (stereo partly drawn) [Compound B155, 3-((S)-3-(2-(6-((4-((1R,2S)-6-hydroxy-2-phenyl-1,2,3,4-tetrahydronaphthalen-1-yl)phenyl)amino)-2-azaspiro[3.3]heptan-2-yl)acetyl)-8-oxo-1,2,3,4,4a,5,8,10-octahydro-9H-pyrazino[1′,2′:4,5][1,4]oxazino[2,3-f]isoindol-9-yl)piperidine-2,6-dione]",< 1 nM,
< 10 nM,"O=C1CCC(N2Cc3cc4c(cc3C2=O)OC[C@@H]2CN(C3CN(CC5CCN(c6ccc([C@@H]7c8ccc(O)cc8CC[C@@H]7c7ccccc7)cc6)CC5)C3)CCN42)C(=O)N1 (stereo partly drawn) [Compound B164, 3-((S)-3-(1-((1-(4-((1R,2S)-6-hydroxy-2-phenyl-1,2,3,4-tetrahydronaphthalen-1-yl)phenyl)piperidin-4-yl)methyl)azetidin-3-yl)-8-oxo-1,2,3,4,4a,5,8,10-octahydro-9H-pyrazino[1′,2′:4,5][1,4]oxazino[2,3-f]isoindol-9-yl)piperidine-2,6-dione]",1 to 10 nM,
> 100 nM,"O=C1CCC(N2Cc3cc4c(cc3C2=O)OC[C@@H]2C[C@H](NCC3CCN(c5ccc([C@@H]6c7ccc(O)cc7CC[C@@H]6c6ccccc6)cc5)CC3)CN42)C(=O)N1 (stereo partly drawn) [Compound B307, 3-((2S,3aS)-2-(((1-(4-((1R,2S)-6-hydroxy-2-phenyl-1,2,3,4-tetrahydronaphthalen-1-yl)phenyl)piperidin-4-yl)methyl)amino)-7-oxo-2,3,3a,4,7,9-hexahydro-1H,8H-pyrrolo[1′,2′:4,5][1,4]oxazino[2,3-f]isoindol-8-yl)piperidine-2,6-dione]",1 to 10 nM,

Structure (SMILES),DC50 (ER),IC50 ([1]; T47D cell line),IC50 [1]
"O=C1CC[C@H](N2Cc3c(ccc4c3OCC43CCN(CC4CCC5(C4)CN(c4ccc([C@@H]6c7ccc(O)cc7CC[C@@H]6c6ccccc6)cc4)C5)CC3)C2=O)C(=O)N1 (stereo partly drawn) [Compound B359, 3-(1′-((2-(4-((1R,2S)-6-hydroxy-2-phenyl-1,2,3,4-tetrahydronaphthalen-1-yl)phenyl)-2-azaspiro[3.4]octan-6-yl)methyl)-6-oxo-6,8-dihydro-2H,7H-spiro[furo[2,3-e]isoindole-3,4′-piperidin]-7-yl)piperidine-2,6-dione]",10 to 100 nM,,1 to 10 nM
